Data reported in patent publication US20140242599A1, “MATERIALS AND METHODS FOR DETERMINING SENSITIVITY POTENTIAL OF COMPOUNDS” (ELECTROPHORETICS LIMITED, priority 2011, published 2014).

Legend:
[1] = test system: Heat shock 70 kDa protein 1 (HSP70, HSPA1A; HSPA1B); test: HSP70-specific ELISA of keratinocyte cell extracts; assay type: cell-based; conditions: primary human keratinocytes, 24 h exposure, FIG. 3
[2] = mouse, in vivo; cited from earlier work
[3] = test system: Aldo-keto reductase family 1, member C2 (AKR1C2); test: Western Blot quantification of AKR1C2 in keratinocyte cell extracts; assay type: cell-based; conditions: primary human keratinocytes, 24 h exposure, FIG. 4
Procedure: (§1) Primary human keratinocytes were obtained from Provitro (Berlin, Germany). Cells were seeded at 3×10E5 cells per 10 cm dish. Cells were grown in serum free supplemented keratinocyte growth medium (Provitro) to 80-90% density prior to treatment. Cells were grown at 37° C. in 5% CO2. Second and third passages post-cryopreserved seedings were used for experiments
(§2) Test chemicals were added and the plates were incubated for 24 hours at 37° C. in a 5% CO2 humidified incubator. When a chemical was dissolved in DMSO, a final concentration of 0.1% DMSO was used in the relevant negative control. After 24 h incubation, cells were harvested and washed twice in PBS.
Cells were lysed in four volumes of 100 mM TEAB (triethylammonium bicarbonate), pH 8.5+0.1, 1 mM TCEP (tris[2-carboxyethyl]phosphine*HCl), 0.1% SDS. After suspending the cell pellet in lysis buffer the suspension was heated at 95° C. for ten minutes in a thermomixer ([Eppendorf, Thermomixer comfort). […]
(§3) As an alternative approach to find predictive markers for sensitizing potential we measured the concentration of biomarkers using commercially available immunoassays to measure the levels of three biomarkers. The three proteins to be measured by Western Blot or ELISA were selected on the basis of a review of literature references to biomarkers of stress toxicity pathways. […]

[4] = test system: Metallothionein-1G (MT1G); test: Western Blot quantification of MT1G in keratinocyte cell extracts; assay type: cell-based; conditions: primary human keratinocytes, 24 h exposure, FIG. 5
Procedure: as §1, §2
Cells were lysed in four volumes of 100 mM TEAB (triethylammonium bicarbonate), pH 8.5+0.1, 1 mM TCEP (tris[2-carboxyethyl]phosphine*HCl), 0.1% SDS. […]
as §3
. […] Effects of contact sensitizers and irritants on MT1G production was determined by Western Blot analysis using MT1G specific antibodies (clone UC1MT, Biozol, Eching, Germany). […]

[5] = test system: Primary human keratinocytes; test: TMT proteomic profiling of exposed keratinocytes, PLS score plot of 102 protein biomarkers; assay type: cell-based; conditions: second study, four donors, FIG. 2
[6] = test system: luciferase gene under the control of the ARE of the AKR1C2 gene in HaCaT keratinocytes; conditions: screen of 43 sensitizers and 24 non-sensitizers; cited from earlier work
Nrf2 pathway = conditions: cited from earlier work

Row | Compound | HSP70 induction (ELISA) [1] | LLNA EC3 (%) [2] [%] | LLNA outcome / sensitizer potency class [2] | AKR1C2 induction (Western Blot) [3] | MT1G induction (Western Blot) [4] | relative distance from the centre of the PLS score plot (size of response) [5] | KeratinoSens identification of sensitizer [6] | reactivity of BDKs, NEHKs and THP-1 (Nrf2 pathway) (Nrf2 pathway)
1 | O=CC=Cc1ccccc1 [CA, 3-phenyl-2-Propenal] | most strongly induced | 2.8 | (moderate) | only induced in CA exposed samples | – | – | – | –
2 | CN(C)C(=S)SSC(=S)N(C)C [TMTD, Tetramethyl thiuram disulfide] | most strongly induced | 5.2 | (moderate) | – | most strongly induced | smaller distance to the centre of the plot | – | –
3 | O=C(Oc1ccccc1)c1ccccc1 [phenyl benzoate] | – | – | – | – | – | – | false negative | –
4 | O=[N+]([O-])c1ccc(Cl)c([N+](=O)[O-])c1 [DNCB, 1-chloro-2,4-dinitrobenzene] | small | – | – | – | – | – | – | high reactivity
